A short description of series [1]: in vivo. The settings on record: rat, iv. The method, then:
Changes in CNP immunoreactivity concentration in plasma when the native CNP-22 shown by SEQ ID No: 101 was administered either solely or jointly with neutral endo-peptidase (NEP) inhibitor and compared with changes in CNP immunoreactivity concentration in plasma when native CNP-53 (SEQ ID No: 159) and the chimeric CNP (D) (structure mentioned already) were intravenously administered.
The experiment was conducted using rats where polyethylene tube (PE-50, manufactured by Clay Adams) was previously inserted into thigh artery under the anesthetized condition with Nembutal. In the group where the native CNP-22 was administered either solely or jointly with an NEP inhibitor, the polyethylene tube (PE-10, manufactured by Clay Adams) was also inserted into the thigh vein. As to a test system, male SD rats (Nippon Charles River) of 7 weeks age were used where one group comprised three rats. As to the NEP inhibitor, DL-Thiorphan (manufactured by Sigma) was used and, during the period from 10 minutes before the initiation of administration of the native CNP-22 until 60 minutes after the initiation of the administration where collection of the blood finished, 5% mannitol (100 μL/min/body) or NEP inhibitor (30 μg/100 μL/min/body) was subjected to a constant-speed intravenous administration for 70 minutes using an Infusion Pump (CFV 2100, manufactured by Nippon Koden K. K.). Native CNP-22, native CNP-53 or chimeric CNP (D) was administered into tail vein in a dose of 20 nmol/kg each and blood over the time from before administration and 60 minutes after administration was collected from a polyethylene tube inserted into the thigh artery. To the collected blood were added EDTA (Dojin Laboratories) and aprotinin (manufactured by Bayer) as a stabilizer and an anti-coagulant, respectively and the plasma was separated by means of centrifugal separation. CNP immunoreactivity concentration in the plasma was measured by a competitive radioimmunoassay (RIA). At that time, a rabbit polyclonal antibody (#2) which specifically recognizes a ring part structure which is the common structure for native CNP-22 and native CNP-53 was used as an antibody while, as a labeling compound, ^125I-[Tyr^0] CNP-22 was used.

Series [2] can be described thus: in vivo. The following applies: male, SD, rat, iv, 10 nmol/kg. The method, then: The experiment was carried out using rats into which polyethylene tube (PE-50 manufactured by Clay Adams) was previously inserted into thigh artery under an anesthetized condition with Nembutal. As to a test system, male SD strain rats (Nippon Charles River) of 7 weeks age were used where one group comprised 3 rats. Native CNP-22 or chimeric CNP in a dose of 10 nmol/kg was administered into tail vein of the rat and the blood before the administration and until 60 minutes after the administration was collected by a polyethylene tube inserted into the thigh artery. To the collected blood were added EDTA (manufactured by Dojin Laboratories) and aprotinin (manufactured by Bayer) as a stabilizer and an anti-coagulant, respectively and the plasma was separated therefrom by centrifugal separation. CNP immunoreactivity concentration in plasma was measured by a competitive radioimmunoassay (RIA). At that time, a rabbit polyclonal antibody (#2) which specifically recognizes the ring partial structure of the native CNP-22 was used as an antibody and, as a labeled compound, ^125I-[Tyr^0] CNP was used.

Where a SMILES comes first, the peptide text is derived from it. Bridges are numbered along the chain shown (N, C = ends). Where no end group is shown, it is not given here.

What is called half-life is how long it takes for the measured level to halve. Read a high half-life as slow loss.

As to `CC[C@H](C)[C@@H]1NC(=O)[C@H](CCCNC(=N)N)NC(=O)[C@H](CC(=O)O)NC(=O)[C@H](CC(C)C)NC(=O)[C@H](CCCCN)NC(=O)[C@H](CC(C)C)NC(=O)CNC(=O)[C@H](Cc2ccccc2)NC(=O)[C@@H](NC(=O)CNC(=O)[C@H](CCCCN)NC(=O)[C@H](CO)NC(=O)[C@H](CC(C)C)NC(=O)CN)CSSC[C@@H](C(=O)N[C@H](C(=O)N[C@@H](CCC(N)=O)C(=O)N[C@@H](CCC(N)=O)C(=O)N[C@@H](CCCNC(=N)N)C(=O)N[C@@H](CCCCN)C(=O)N[C@@H](CCC(=O)O)C(=O)N[C@@H](CO)C(=O)N[C@@H](CCCCN)C(=O)N[C@@H](CCCCN)C(=O)N2CCC[C@H]2C(=O)N2CCC[C@H]2C(=O)N[C@@H](C)C(=O)N[C@@H](CCCCN)C(=O)N[C@@H](CC(C)C)C(=O)N[C@@H](CCC(N)=O)C(=O)N2CCC[C@H]2C(=O)N[C@@H](CCCNC(=N)N)C(=O)O)C(C)C)NC(=O)CNC(=O)[C@H](CC(C)C)NC(=O)CNC(=O)[C@H](CO)NC(=O)[C@H](CCSC)NC(=O)[C@H](CO)NC(=O)CNC1=O` [Chimeric CNP (D)] (H-GLSKGCFGLKLDRIGSMSGLGCVQQRKESKKPPAKLQPR-OH; disulfide 6-22; N-terminus and C-terminus assumed), in “in vivo [1]”, the “half-life compared with native CNP-22, native CNP-22 together with NEP inhibitor and native CNP-53” value is listed as “longer half-life”. The compound further registered a half-life in the series “in vivo [2]” of 20.3 min.
`CC[C@H](C)[C@@H]1NC(=O)[C@H](CCCNC(=N)N)NC(=O)[C@H](CC(=O)O)NC(=O)[C@H](CC(C)C)NC(=O)[C@H](CCCCN)NC(=O)[C@H](CC(C)C)NC(=O)CNC(=O)[C@H](Cc2ccccc2)NC(=O)[C@@H](NC(=O)[C@H](CCCNC(=N)N)NC(=O)[C@@H]2CCCN2C(=O)[C@H](CCC(N)=O)NC(=O)[C@H](CC(C)C)NC(=O)[C@H](CCCCN)NC(=O)[C@H](C)NC(=O)[C@@H]2CCCN2C(=O)[C@@H]2CCCN2C(=O)[C@H](CCCCN)NC(=O)[C@H](CCCCN)NC(=O)[C@H](CO)NC(=O)[C@H](CCC(=O)O)NC(=O)[C@H](CCCCN)NC(=O)[C@H](CCCNC(=N)N)NC(=O)[C@H](CCC(N)=O)NC(=O)[C@H](CCC(N)=O)NC(=O)[C@@H](N)C(C)C)CSSC[C@@H](C(=O)O)NC(=O)CNC(=O)[C@H](CC(C)C)NC(=O)CNC(=O)[C@H](CO)NC(=O)[C@H](CCSC)NC(=O)[C@H](CO)NC(=O)CNC1=O` [Chimeric CNP (G)] (H-VQQRKESKKPPAKLQPRCFGLKLDRIGSMSGLGC-OH; disulfide 18-34; N-terminus and C-terminus assumed) returned a half-life in “in vivo [2]” of 17.8 min.
`CC[C@H](C)[C@@H]1NC(=O)[C@H](CCCNC(=N)N)NC(=O)[C@H](CC(=O)O)NC(=O)[C@H](CC(C)C)NC(=O)[C@H](CCCCN)NC(=O)[C@H](CC(C)C)NC(=O)CNC(=O)[C@H](Cc2ccccc2)NC(=O)[C@@H](NC(=O)[C@@H](NC(=O)[C@H](CCC(N)=O)NC(=O)[C@H](CCC(N)=O)NC(=O)[C@H](CCCNC(=N)N)NC(=O)[C@H](CCCCN)NC(=O)[C@H](CCC(=O)O)NC(=O)[C@H](CO)NC(=O)[C@H](CCCCN)NC(=O)[C@H](CCCCN)NC(=O)[C@@H]2CCCN2C(=O)[C@@H]2CCCN2C(=O)[C@H](C)NC(=O)[C@H](CCCCN)NC(=O)[C@H](CC(C)C)NC(=O)[C@H](CCC(N)=O)NC(=O)[C@@H]2CCCN2C(=O)[C@@H](N)CCCNC(=N)N)C(C)C)CSSC[C@@H](C(=O)O)NC(=O)CNC(=O)[C@H](CC(C)C)NC(=O)CNC(=O)[C@H](CO)NC(=O)[C@H](CCSC)NC(=O)[C@H](CO)NC(=O)CNC1=O` [Chimeric CNP (H)] (H-RPQLKAPPKKSEKRQQVCFGLKLDRIGSMSGLGC-OH; disulfide 18-34; N-terminus and C-terminus assumed) gave a half-life in “in vivo [2]” of 14.9 min.
On the same count and under the same terms, the value for `CC[C@H](C)[C@@H]1NC(=O)[C@H](CCCNC(=N)N)NC(=O)[C@H](CC(=O)O)NC(=O)[C@H](CC(C)C)NC(=O)[C@H](CCCCN)NC(=O)[C@H](CC(C)C)NC(=O)CNC(=O)[C@H](Cc2ccccc2)NC(=O)[C@@H](N)CSSC[C@@H](C(=O)N[C@H](C(=O)N[C@@H](CCC(N)=O)C(=O)N[C@@H](CCC(N)=O)C(=O)N[C@@H](CCCNC(=N)N)C(=O)N[C@@H](CCCCN)C(=O)N[C@@H](CCC(=O)O)C(=O)N[C@@H](CO)C(=O)N[C@@H](CCCCN)C(=O)N[C@@H](CCCCN)C(=O)N2CCC[C@H]2C(=O)N2CCC[C@H]2C(=O)N[C@@H](C)C(=O)N[C@@H](CCCCN)C(=O)N[C@@H](CC(C)C)C(=O)N[C@@H](CCC(N)=O)C(=O)N2CCC[C@H]2C(=O)N[C@@H](CCCNC(=N)N)C(N)=O)C(C)C)NC(=O)CNC(=O)[C@H](CC(C)C)NC(=O)CNC(=O)[C@H](CO)NC(=O)[C@H](CCSC)NC(=O)[C@H](CO)NC(=O)CNC1=O` [Chimeric CNP (I)] (H-CFGLKLDRIGSMSGLGCVQQRKESKKPPAKLQPR-NH2; disulfide 1-17; N-terminus assumed) was 14.5 min.
Consider `CC[C@H](C)[C@@H]1NC(=O)[C@H](CCCNC(=N)N)NC(=O)[C@H](CC(=O)O)NC(=O)[C@H](CC(C)C)NC(=O)[C@H](CCCCN)NC(=O)[C@H](CC(C)C)NC(=O)CNC(=O)[C@H](Cc2ccccc2)NC(=O)[C@@H](NC(=O)CNC(=O)[C@H](CCCCN)NC(=O)[C@H](CO)NC(=O)[C@H](CC(C)C)NC(=O)CNC(=O)[C@H](CCCCN)NC(=O)[C@H](CCCCN)NC(=O)[C@H](CC(N)=O)NC(=O)[C@H](C)NC(=O)CNC(=O)[C@H](CCCCN)NC(=O)[C@H](Cc2ccc(O)cc2)NC(=O)[C@H](CCCCN)NC(=O)[C@H](CCCNC(=N)N)NC(=O)[C@H](C)NC(=O)[C@H](CC(N)=O)NC(=O)[C@@H]2CCCN2C(=O)[C@H](Cc2c[nH]cn2)NC(=O)[C@H](CCC(=O)O)NC(=O)[C@H](CCC(N)=O)NC(=O)[C@H](CC(C)C)NC(=O)[C@H](CC(C)C)NC(=O)[C@H](CCCNC(=N)N)NC(=O)[C@H](C)NC(=O)[C@H](Cc2c[nH]c3ccccc23)NC(=O)[C@H](C)NC(=O)[C@H](C)NC(=O)[C@H](CCCNC(=N)N)NC(=O)[C@H](CO)NC(=O)[C@H](CCCCN)NC(=O)[C@@H](NC(=O)[C@H](CC(=O)O)NC(=O)[C@@H](NC(=O)[C@H](CCCNC(=N)N)NC(=O)[C@H](CC(C)C)NC(=O)[C@@H](N)CC(=O)O)C(C)C)[C@@H](C)O)CSSC[C@@H](C(=O)O)NC(=O)CNC(=O)[C@H](CC(C)C)NC(=O)CNC(=O)[C@H](CO)NC(=O)[C@H](CCSC)NC(=O)[C@H](CO)NC(=O)CNC1=O` [Native CNP-53], for which the half-life in the series “in vivo [1]” (male, SD) turned out to be 15.7 min.
“RPQLKAPPKKSEKRQQVCFGLKLDRIGSMSGLGCVQQRKESKKPPAKLQPR (disulfide 18-34) [Chimeric CNP (F)]” had a half-life in “in vivo [2]” of 17.4 min.
Same read-out and setting: the result for “VQQRKESKKPPAKLQPRCFGLKLDRIGSMSGLGCVQQRKESKKPPAKLQPR (disulfide 18-34) [Chimeric CNP (E)]” reads 18.4 min.
